Assay: logP determination through HPLC (EEC directive 79/831 Annex V. A8, gradient method, acetonitrile/0.1% aqueous phosphoric acid)
Assay type: physicochemical
Details: for logP: Table 1, compounds of formula (I), HPLC gradient method, acetonitrile/0.1% aqueous phosphoric acid; for chromatographic logP: HPLC

logP	Compound	other results
2.64	C[C@H](Nc1c(-c2ncccc2[N+](=O)[O-])c(Cl)nc2nc(C3CC3)nn12)C(F)(F)F (single isomer, unassigned) [Example 16]	
2.65 (Iso- mer)	C[C@H](Nc1c(-c2ncccc2[N+](=O)[O-])c(Cl)nc2nc(C3CC3)nn12)C(F)(F)F (single isomer, unassigned) [Example 17]	
	Cc1nc2nc(Cl)c(-c3ncccc3C(F)(F)F)c(N[C@@H](C)C(F)(F)F)n2n1 [Example 1, N-{5-chloro-2-methyl-6-[3-(trifluormethyl)-2-pyridinyl][1,2,4]triazolo-[1,5-a]pyrimidin-7-yl}-N-[(1S)-2,2,2-trifluor-1-methylethyl]amine]	chromatographic logP: 2.38
	Cc1nc2nc(Cl)c(-c3ncncc3Cl)c(NC(C)C(F)(F)F)n2n1 [Example 2, N-[5-chloro-6-(5-chloro-4-pyrimidinyl)-2-methyl[1,2,4]triazolo[1,5-a]pyrimidin-7-yl]-N-[(1S)-2,2,2-trifluor-1-methylethyl]amine]	chromatographic logP (HPLC (gradient method)): 2.13
3.77	CC1CCN(c2c(-c3ncccc3C(F)(F)F)c(Cl)nc3nc(C4CC4)nn23)CC1 [Example 3]	
3.20	FC1(F)CCN(c2c(-c3ncccc3C(F)(F)F)c(Cl)nc3nc(C4CC4)nn23)CC1 [Example 4]	
3.75	CC(Nc1c(-c2ncccc2C(F)(F)F)c(Cl)nc2nc(C3CC3)nn12)C(C)(C)C (centres unmarked) [Example 5]	
3.29	CC(C)C(C)Nc1c(-c2ncccc2C(F)(F)F)c(Cl)nc2nc(C3CC3)nn12 (centres unmarked) [Example 6]	
3.01	CC(Nc1c(-c2ncccc2C(F)(F)F)c(Cl)nc2nc(C3CC3)nn12)C(F)(F)F (centres unmarked) [Example 7]	
2.69	CC(Nc1c(-c2ncncc2Cl)c(Cl)nc2nc(C3CC3)nn12)C(F)(F)F (centres unmarked) [Example 8]	
2.31	Cc1nc2nc(Cl)c(-c3ncncc3Cl)c(NC(C)C(C)C)n2n1 (centres unmarked) [Example 9]	
3.09	Cc1nc2nc(Cl)c(-c3ncccc3C)c(N3CCC(C)CC3)n2n1 [Example 10]	
2.94	CC(C)C(C)Nc1c(-c2ncncc2Cl)c(Cl)nc2nc(C3CC3)nn12 (centres unmarked) [Example 15]	
3.09	CC(Nc1c(-c2ccccn2)c(Cl)nc2nc(C3CC3)nn12)C(C)(C)C (centres unmarked) [Example 18]	
3.26	C[C@H](Nc1c(-c2ncc([N+](=O)[O-])cc2Cl)c(Cl)nc2nc(C3CC3)nn12)C(F)(F)F [Example 19]	
3.21	CC(Nc1c(-c2ncccc2[N+](=O)[O-])c(Cl)nc2nc(C3CC3)nn12)C(C)(C)C (centres unmarked) [Example 20]	
2.60	Cc1nc2nc(Cl)c(-c3ncccc3[N+](=O)[O-])c(NC(C)C(C)(C)C)n2n1 (centres unmarked) [Example 21]	
2.60	CC(Nc1c(-c2ccccn2)c(Cl)nc2nc(C3CC3)nn12)C(F)(F)F (centres unmarked) [Example 22]	
2.60	CC(Nc1c(-c2ccccn2)c(Cl)nc2nc(C3CC3)nn12)C(F)(F)F (centres unmarked) [Example 24]	
2.82	CC(C)C(C)Nc1c(-c2ncccc2[N+](=O)[O-])c(Cl)nc2nc(C3CC3)nn12 (centres unmarked) [Example 25]	
2.63	CC(C)C(C)Nc1c(-c2ccccn2)c(Cl)nc2nc(C3CC3)nn12 (centres unmarked) [Example 27]	
3.86	CC(Nc1c(-c2nc([N+](=O)[O-])ccc2Cl)c(Cl)nc2nc(C3CC3)nn12)C(C)(C)C (centres unmarked) [Example 28]	
2.90	CC(C)c1nc2nc(Cl)c(-c3ncncc3Cl)c(NC(C)C(F)(F)F)n2n1 (centres unmarked) [Example 29]	
2.37	FC(F)(F)CNc1c(-c2ncncc2Cl)c(Cl)nc2nc(C3CC3)nn12 [Example 30]	
2.56	CC(C)c1nc2nc(Cl)c(-c3ncncc3Cl)c(NCC(F)(F)F)n2n1 [Example 31]	
3.12	CC(C)C(C)Nc1c(-c2ncncc2Cl)c(Cl)nc2nc(C3CC3)nn12 (centres unmarked) [Example 32]	
3.50	CC(Nc1c(-c2ncncc2Cl)c(Cl)nc2nc(C3CC3)nn12)C(C)(C)C (centres unmarked) [Example 33]	

logP	Compound	other results
3.67	CC(C)c1nc2nc(Cl)c(-c3ncncc3Cl)c(NC(C)C(C)(C)C)n2n1 (centres unmarked) [Example 34]	
3.39	CC(Nc1c(-c2ncncc2Cl)c(Cl)nc2nc(C3CC3)nn12)C(C)(C)C (centres unmarked) [Example 35]	
3.17	CC(C)c1nc2nc(Cl)c(-c3ncncc3Cl)c(NC(C)C(C)C)n2n1 (centres unmarked) [Example 36]	
2.95	CC(C)C(C)Nc1c(-c2ncncc2Cl)c(Cl)nc2nc(C3CC3)nn12 (centres unmarked) [Example 37]	
2.82	CC(Nc1c(-c2ncncc2Cl)c(Cl)nc2nc(C3CC3)nn12)C(F)(F)F (centres unmarked) [Example 38]	
2.48	FC(F)(F)CNc1c(-c2ccncc2Cl)c(Cl)nc2nc(C3CC3)nn12 [Example 40]	
2.75	FC1(F)CCN(c2c(-c3ncncc3Cl)c(Cl)nc3nc(C4CC4)nn23)CC1 [Example 41]	
2.82	CC(Nc1c(-c2ccncc2Cl)c(Cl)nc2nc(C3CC3)nn12)C(F)(F)F (centres unmarked) [Example 42]	
3.09	CC(C)C(C)Nc1c(-c2ccncc2Cl)c(Cl)nc2nc(C3CC3)nn12 (centres unmarked) [Example 43]	
2.78	CC(Nc1c(-c2ccncc2Cl)c(Cl)nc2nc(C3CC3)nn12)C(F)(F)F (centres unmarked) [Example 44]	
4.32	CC(Nc1c(-c2cc(Cl)sc2Cl)c(Cl)nc2nc(C3CC3)nn12)C(F)(F)F (centres unmarked) [Example 46]	
3.85	FC(F)(F)CNc1c(-c2cc(Cl)sc2Cl)c(Cl)nc2nc(C3CC3)nn12 [Example 47]	
4.18	CC(C)Nc1c(-c2cc(Cl)sc2Cl)c(Cl)nc2nc(C3CC3)nn12 [Example 48]	
5.08	CC(C)(C)CNc1c(-c2cc(Cl)sc2Cl)c(Cl)nc2nc(C3CC3)nn12 [Example 50]	
3.81	CC(C)C(C)Nc1c(-c2ccsc2)c(Cl)nc2nc(C3CC3)nn12 (centres unmarked) [Example 52]	
5.03	CC(C)C(C)Nc1c(-c2cc(Cl)sc2Cl)c(Cl)nc2nc(C3CC3)nn12 (centres unmarked) [Example 53]	
4.23	CC1CCN(c2c(-c3ccsc3)c(Cl)nc3nc(C4CC4)nn23)CC1 [Example 55]	
3.41	FC1(F)CCN(c2c(-c3ccsc3)c(Cl)nc3nc(C4CC4)nn23)CC1 [Example 56]	
4.13	C=C(C)CN(CC)c1c(-c2ccsc2)c(Cl)nc2nc(C3CC3)nn12 [Example 57]	
4.08	COCCN(C)c1c(-c2cc(Cl)sc2Cl)c(Cl)nc2nc(C3CC3)nn12 [Example 58]	
3.29	CC(Nc1c(-c2ccsc2)c(Cl)nc2nc(C3CC3)nn12)C(F)(F)F (centres unmarked) [Example 59]	
2.87	FC(F)(F)CNc1c(-c2ccsc2)c(Cl)nc2nc(C3CC3)nn12 [Example 60]	
4.14	CC(C)CC(C)Nc1c(-c2ccsc2)c(Cl)nc2nc(C3CC3)nn12 (centres unmarked) [Example 61]	
3.90	CC(C)CN(C)c1c(-c2ccsc2)c(Cl)nc2nc(C3CC3)nn12 [Example 63]	
2.91	COCCN(C)c1c(-c2ccsc2)c(Cl)nc2nc(C3CC3)nn12 [Example 64]	
3.18	Clc1nc2nc(C3CC3)nn2c(N2CCCC2)c1-c1ccsc1 [Example 65]	
4.32	CCCN(CC1CC1)c1c(-c2ccsc2)c(Cl)nc2nc(C3CC3)nn12 [Example 66]	

Compound	logP	other results
Cc1nc2nc(Cl)c(-c3ncccc3C(F)(F)F)c(NC(C)C(C)(C)C)n2n1 (centres unmarked) [Example 11]	2.99	
Cc1nc2nc(Cl)c(-c3ncccc3C(F)(F)F)c(NC(C)C(C)C)n2n1 (centres unmarked) [Example 12]	2.68	

— patent US20070179295A1, “Triazolopyrimidines” (priority 2003, published 2007)
